SMILES strings stand for the structures.

The data set can be described thus: gradient 5% acetonitrile 3 min, to 50% in 2 min, to 85% in 15 min, held 3 min, 100 µL/min. The note with it: column: Zorbax Extend-C18 2.1 x 50 mm; eluents: water / acetonitrile, 0.1% formic acid. The gist of the method:
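Pure standards were run in mixtures of ~100 molecules by HPLC coupled to a quadrupole time-of-flight mass spectrometer. The column was a Zorbax Extend-C18 (2.1 × 50 mm, 1.8 μm) at 100 μL/min, with water and acetonitrile each containing 0.1% formic acid, in positive and negative ionization mode. Dead and dwell volumes were 40 μL and 900 μL. Retention time was taken from computationally picked adduct peaks, each manually inspected, with data collected over 3 months.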
The compound `Cc1cccc(C)c1OCC(O)Cn1c(C2CC(=O)N(Cc3ccccc3)C2)nc2ccccc21` (centres undefined) registered an RP-LC retention time of 834 s.
In the case of `CCN(CC)c1nc(C(=O)NCCN2CCN(C)CC2)nc2nc(C)cc(C)c12` it was 542 s.
As for `Cc1ccc(CNC(=O)CN2CCN(C(=O)Nc3ccc(Cl)cc3)CC2=O)o1`, the figure is 725 s; as for `Cc1ccc(-c2nccn3cc(C(=O)N4CCN(CC(C)C)CC4)nc23)cc1`, 656 s.
As for `CCCn1cc(-c2ccncc2)cc1C(=O)NC1CC1`, the figure is 579 s.
As for `CCOC(=O)C1=C(C)NC(=O)NC1c1nc2ccccc2n1CC` (centres undefined), the RP-LC retention time was determined as 597 s.
In the case of `CC(=O)N1CCC2(CC1)CC(N(C(=O)NC(C)C)C1CC1)CCO2` (centres undefined) it was 653 s.
In the case of `Cc1cccc(C(=O)Nc2ccc3c(c2)Sc2ncccc2C(=O)N3C(C)C)c1` it was 898 s; in that of `COCCCNC(=O)NCc1ccc2c(c1)N(C(=O)c1ccccc1)CC2`, 742 s.
In the case of `O=C(c1cccc(-n2cnnn2)c1)N1CCN(Cc2nc3ccccc3[nH]2)CC1` it was 543 s.
On to `CCCn1ccc2sc(C)c(C(=O)NCC(C)C)c2c1=O`, for which the RP-LC retention time was found to be 800 s.
As for `Fc1cccc(-c2nc(-c3ccc4nncn4c3)no2)c1`, the figure is 813 s; as for `CC(C)CNC(=O)c1cn(-c2ccc(NC(=O)C(C)C)cn2)cn1`, 702 s; as for `COc1ccc(C(=O)N2CCc3cn(C)c4cccc(c34)C2)cc1`, 920 s.
Take `CC(C)n1c(=O)oc2cc(-c3noc(-c4cc(F)ccc4F)n3)ccc21`: the RP-LC retention time turned out to be 1130 s.
As for `CC1(C)CC(=O)C2=C(C1)Nc1ccccc1N(CC(=O)NCC1CCCO1)C2c1cccs1` (centres undefined), the figure is 754 s.
As for `CCc1nc(-c2cc(S(=O)(=O)N3CCC(C(=O)Nc4cccc(C#N)c4)CC3)c(C)s2)no1`, the figure is 1020 s.
In the case of `Clc1cccc(-c2nc3ccc(Cl)cn3c2Nc2ccc3c(c2)OCO3)c1` it was 978 s.
As for `O=Cc1ccc(O)c2ncccc12`, the RP-LC retention time was 658 s.
As for `Cc1nc2cccnc2n1C1CCN(C(=O)C2CCCCC2)C1` (centres undefined), the figure is 591 s; as for `COc1cccc(-c2ccc(=O)n(CCc3nc(-c4ccc5c(c4)OCO5)no3)n2)c1`, 804 s; as for `COc1ccc(-c2noc(CN3C(=O)COc4ccc(C(C)(C)C)cc43)n2)cc1OC`, 1120 s.
Consider `CCS(=O)(=O)Nc1ccc(C2(C(=O)NCc3cccc(F)c3)CCCCC2)cc1`, for which the RP-LC retention time amounted to 933 s.
As for `c1cc2c(cc1-c1noc(CCC3CCCC3)n1)nnn2CCN1CCOCC1`, the figure is 780 s; as for `CCN1c2ccc(C)cc2C(=O)NC12CCN(C(=O)c1cc(F)cc(F)c1)CC2`, 858 s.
In the case of `COc1ccc(CCN2CC(=O)N3Cc4[nH]c5ccccc5c4C[C@H]3C2=O)cc1OC` it was 761 s; in that of `COC1C(=O)N(CC2CC2)C12CCN(S(=O)(=O)c1cccc3cccnc13)CC2` (centres undefined), 790 s.
`COc1ccc(-c2noc(CSc3nc4cc5c(cc4c(=O)n3CC3CCCO3)OCO5)n2)cc1` (centres undefined) had an RP-LC retention time of 1090 s.
Compound `O=C(NCCn1ncccc1=O)c1csc(-c2ccccc2)n1` yielded an RP-LC retention time of 648 s.
As for `O=C(Nc1ccccc1Cl)N(Cc1ccsc1)Cc1ccccn1`, the figure is 806 s; as for `CC1CCN(c2ncc(S(=O)(=O)c3ccc(C(C)C)cc3)c(N)n2)CC1`, 1240 s.
As for `CCC(CC)NC(=O)C1Cn2cccc2C(=O)N1C` (centres undefined), the figure is 661 s; as for `C=CCn1c(SCC(=O)N2CCC(C(N)=O)CC2)nnc1-c1sc2ncccc2c1N`, 616 s; as for `COc1ccc(NC(=O)Cn2c(C)cc(-c3nnc(C4CCC4)o3)c2C)cc1F`, 697 s.
As for `CCOC(=O)c1cnc2nc(C)ccc2c1Nc1cc(F)ccc1Cl`, the figure is 764 s; as for `COc1ccc(-c2noc(-c3ccc(NCCCN4CCC(N5CCCCC5)CC4)nn3)n2)cc1`, 603 s.
`Cc1nnc(N2CCC(C(=O)N3CCOCC3)CC2)c2nn(-c3ccccc3)c(C)c12` registered an RP-LC retention time of 620 s.
As for `O=C1Nc2cc(C(=O)N3CCC(N4CCCCC4)CC3)ccc2N2CCCCC12` (centres undefined), the figure is 581 s; as for `Cc1cc(C2CCCN2C(=O)c2cc(-c3ccccc3F)no2)no1` (centres undefined), 885 s.
In turn, `O=C(O)c1ccccc1-c1ccccc1C(=O)Nc1nc2ccccc2s1` yielded an RP-LC retention time of 867 s.
As for `CN1c2ccc(F)cc2C(=O)NC12CCN(C(=O)Cc1ccc(Cl)cc1)CC2`, the figure is 795 s; as for `Cn1nc(C(=O)N2CCCC(C(=O)NC3CC3)C2)c2c1CCN(C(=O)c1c(F)cccc1F)C2` (centres undefined), 660 s.
As for `CS(=O)(=O)N1CCCC(C(=O)Nc2nc3cc4c(cc3s2)OCCO4)C1` (centres undefined), the RP-LC retention time turned out to be 707 s.
In the case of `COc1ccc(-c2cnn3c(C)cc(C)nc23)cc1S(=O)(=O)NC(C)c1ccccc1` (centres undefined) it was 1010 s; in that of `COc1ccc(CC(=O)Nc2nc(S(=O)(=O)Cc3ccccc3)ns2)cc1OC`, 775 s; in that of `CCCn1ccc2oc(C)c(C(=O)NCc3ccc(C(C)C)cc3)c2c1=O`, 786 s.
As for `CCc1ccc(NC(=O)C2CCN(S(=O)(=O)c3cc(-c4noc(CC)n4)cs3)CC2)cc1`, the figure is 660 s.
As for `CC(C)c1cc(C(=O)NCc2ccco2)nc2cc(-c3ccccn3)nn12`, the figure is 629 s.
`COc1cccc(Cn2c(C)c(CNCc3ccccn3)c(C(=O)O)c2C)c1` returned an RP-LC retention time of 676 s.
In the case of `CSc1ncccc1C(=O)N1CCc2nc(C)ncc2C1` it was 606 s; in that of `O=C(Cn1c(=O)n(-c2ccccc2)c2ncccc21)NCCCN1CCCC1`, 586 s; in that of `O=C(Nc1ccc2c(c1)CNCCO2)C1CC1`, 527 s.
As for `CC(=O)Nc1cccc(N2CC(C(=O)Nc3ccc(C(F)(F)F)cc3)CC2=O)c1` (centres undefined), the figure is 770 s; as for `C=CC(=O)N1C/C(=C\c2ccccc2)C(=O)/C(=C/c2ccccc2)C1`, 930 s.
Regarding `CCn1c(=O)c(N2CCC(NC(=O)Nc3ccccc3Cl)CC2)nc2ccccc21`, the RP-LC retention time was 1010 s.
Compound `O=C(NCc1ccncc1)C1CCCN(c2nnc3ccc(C(F)(F)F)cn23)C1` (centres undefined) gave an RP-LC retention time of 550 s.
With `CCOC(=O)c1c(S(=O)(=O)N2CCC(C(=O)NC(C)CC)CC2)c(C)n(C)c1C` (centres undefined), the RP-LC retention time stood at 747 s.
As for `Cc1ccc2[nH]cc(CCN3CC(C(=O)NCc4ccccc4Cl)CC3=O)c2c1` (centres undefined), the figure is 846 s; as for `O=C(c1cc(-c2ccccc2)n[nH]1)N1C[C@H]2CNC(=O)[C@]23CCCC[C@@H]13`, 683 s.
In the case of `CC(=O)c1cccc(NC2=NS(=O)(=O)C(c3cccc(Cl)c3)=C2C)c1` it was 902 s; in that of `CCc1noc(-c2ccc(=O)n(CC(=O)Nc3ccc(F)cc3)c2)n1`, 1020 s; in that of `CCC(=O)N1CCc2cc(N3CC(C(=O)Nc4ccc(C)cc4)CC3=O)ccc21` (centres undefined), 786 s.
In the case of `COc1cc(-c2nc3c(C)cccn3c2Nc2ccc(C)cc2)ccc1O` it was 684 s; in that of `CCOc1ccc(-c2noc(Cn3c(=O)n(CC(C)C)c(=O)c4ccccc43)n2)cc1OC`, 1270 s.
As for `COc1ccc(CC(=O)Nc2cccc(-c3ccc4nnc(-c5ccncc5)n4n3)c2)cc1`, the RP-LC retention time stood at 624 s.
In the case of `CC(C)(CO)c1cc2cc(NC(=O)C3(c4ccc5c(c4)OC(F)(F)O5)CC3)c(F)cc2n1C[C@@H](O)CO` it was 1000 s.
In the case of `CC1CCCN(c2nn(CC(=O)Nc3ccccc3Cl)c(=O)c3ccccc23)C1` (centres undefined) it was 1180 s; in that of `CCCN(CC1CCOC1)C(=O)Nc1ccc(C(F)(F)F)cc1` (centres undefined), 908 s; in that of `COc1ccccc1NC(=O)CSc1nc2ccccc2c(=O)n1C1CCCCC1`, 1230 s.
In the case of `CC(C)(C)NC(=O)N1CCCC1c1noc(COc2ccc(F)cc2)n1` (centres undefined) it was 894 s; in that of `CN(C)c1cc(C(=O)Nc2ccccc2)c2ccccc2n1`, 651 s.
`CCOc1ccc2nc(C(=O)NCc3ccc(OC(C)C)cc3)cn2n1`: the RP-LC retention time worked out at 940 s.
As for `CCOc1ccc(C(=O)Nc2cccn3nc(C(C)C)nc23)cc1`, the figure is 964 s.
As for `Cn1cc(-c2cc3n(n2)CCC(=O)N3CCCC(=O)NCC2COCCO2)c2ccccc21` (centres undefined), the figure is 680 s.
As for `CC(=O)N1CCC(C2CCN(C(=O)CN3CCCC3=O)C2)CC1` (centres undefined), the figure is 580 s.
As to `Cn1nc(-c2nc(C3CC3)no2)c2c1CCN(C(=O)c1ccccc1F)C2`, the RP-LC retention time is 805 s.
`Cc1cnc(C(=O)N2CCC(c3noc(-c4ccncc4)n3)C2)cn1` (centres undefined) displayed an RP-LC retention time of 645 s.
Turning to `COC(=O)c1ccccc1NC(=O)CSc1cc(N2CCN(c3ccccc3OC)CC2)ncn1`, the RP-LC retention time is 905 s.
As for `CCCn1cc(C(=O)NCCCOCC)c(S(=O)(=O)N2CCN(c3cccc(Cl)c3)CC2)n1`, the figure is 1110 s.

The record behind these values is the METLIN SMRT retention time set (Domingo-Almenara et al. 2019).
